Literature values, collected in patent US11957779B2, “Agent for dyeing keratinous material, containing aminosilicone, pigment and polysaccharide” (Henkel AG & Co. KGaA, priority 2019, dated 2024).

Tests used:
[1] = 25° C.
[2] = 5% solution in water

SMILES | solubility in water [1] | other results
CCN(Cc1cccc(S(=O)(=O)[O-])c1)c1ccc(C(=C2C=CC(=[N+](CC)Cc3cccc(S(=O)(=O)[O-])c3)C=C2)c2ccccc2S(=O)(=O)[O-])cc1.[Na+].[Na+] [Acid Blue 9] | more than 20 wt. % | –
O=S(=O)([O-])c1ccc(N=Nc2c(O)ccc3ccccc23)cc1.[Na+] [Acid Orange 7, sodium salt of 4-[(2-hydroxy-1-naphthyl)azo]benzene sulphonate] | more than 7 g/L | –
Nc1cc(S(=O)(=O)[O-])cc2cc(S(=O)(=O)[O-])c(N=Nc3ccccc3)c(O)c12.[Na+].[Na+] [Acid Red 33, diantrium salt of 5-amino-4-hydroxy-3-(phenylazo)-naphthalene-2,7-disulphonate] | 2500 µg/mL | –
O=C([O-])c1c(Cl)c(Cl)c(Cl)c(Cl)c1-c1c2c(Br)cc(=O)c(Br)c-2oc2c(Br)c(O)cc(Br)c12.O=C([O-])c1c(Cl)c(Cl)c(Cl)c(Cl)c1-c1c2c(Br)cc(=O)c(Br)c-2oc2c(Br)c(O)cc(Br)c12.[Na+].[Na+] [Acid Red 92, disodium salt of 3,4,5,6-tetrachloro-2-(1,4,5,8-tetrabromo-6-hydroxy-3-oxoxanthen-9-yl)benzoic acid] | greater than 10 g/L | –
O=C([O-])C1=NN(c2ccc(S(=O)(=O)[O-])cc2)C(=O)C1N=Nc1ccc(S(=O)(=O)[O-])cc1.[Na+].[Na+].[Na+] (stereo not drawn) [Acid Yellow 23, trisodium salt of 4,5-dihydro-5-oxo-1-(4-sulfophenyl)-4-((4-sulfophenyl)azo)-1H-pyrazole-3-carboxylic acid] | – | solubility in water (in words) [1]: highly soluble
O=P([O-])(O)O.[K+] [Potassium dihydrogen phosphate] | – | pH value [2]: about 4.4
